Activity calls are given as the source filed them. The calls are words filed in the database; no cut-off is given here.
Key:
Staphylococcus aureus [1] = experiment: Induction of morphological changes in methicillin-resistant Staphylococcus aureus clinical isolate M12 assessed as irregular change in cell surface at 8 times MIC incubated for 4 hrs by SEM analysis; assay type: functional, organism-based
[2] = Toxicity in sepsis BALB/c mouse model infected with methicillin-resistant Staphylococcus aureus clinical isolate M12 assessed as survival rate at 12 mg/kg, ip administered consecutively at 12 hr-interval for 7 days measured after 24 hrs post-last dose; assay type: organism-based; conditions: in vivo, 192 h, time 8 day
Staphylococcus aureus [3] = experiment: Antibacterial activity against methicillin-resistant Staphylococcus aureus clinical isolate M12 infected in sepsis BALB/c mouse model assessed as decrease in bacterial load in liver at 12 mg/kg, ip administered consecutively at 12 hr-interval for 24 hrs measured after 24 hrs post-last dose; assay type: functional; conditions: time 48 hrs
Staphylococcus aureus [4] = experiment: Antibacterial activity against methicillin-resistant Staphylococcus aureus clinical isolate M12 infected in sepsis BALB/c mouse model assessed as decrease in pathological change in white medulla of spleen at 12 mg/kg, ip administered consecutively at 12 hr-interval for 24 hrs measured after 24 hrs post-last dose by H and E staining based analysis; assay type: functional, organism-based; conditions: time 48.0 hrs
Staphylococcus aureus [5] = experiment: Bactericidal activity against Staphylococcus aureus ATCC 29213 assessed as inhibition of bacterial growth at 4 times MIC incubated upto 8 hrs by time-kill assay; assay type: functional, organism-based
Staphylococcus aureus [6] = experiment: Antibacterial activity against methicillin-resistant Staphylococcus aureus clinical isolate M12 infected in KM mouse assessed as smooth skin at infection site at 10 mg/kg, sc measured after 24 hrs; assay type: functional, organism-based
[7] = Toxicity in KM mouse assessed as pathological change in heart at 20 mg/kg, sc measured after 24 hrs by H and E staining based analysis; assay type: organism-based; conditions: in vivo
[8] = Toxicity in KM mouse infected with methicillin-resistant Staphylococcus aureus clinical isolate M12 assessed as damage in spleen at 5 to 10 mg/kg, sc measured after 24 hrs by H and E staining based analysis; assay type: organism-based; conditions: in vivo, dose 5-10 mg/kg
[9] = Toxicity in BALB/c mouse assessed as change in mental status at <15 mg/kg, ip bid for 7 days; assay type: organism-based; conditions: in vivo, 168 h, time 7 day
[10] = Toxicity in BALB/c mouse assessed as degeneration of hepatocytes at 15 mg/kg, ip bid for 7 days; assay type: organism-based; conditions: in vivo, 168 h, time 7 day
[11] = Toxicity in KM mouse assessed as inflammatory cell infiltration in lung epithelial cells at 20 mg/kg, sc measured after 24 hrs by H and E staining based analysis; assay type: organism-based; conditions: in vivo
[12] = Toxicity in KM mouse assessed as necrosis in lung epithelial cells at 20 mg/kg, sc measured after 24 hrs by H and E staining based analysis; assay type: organism-based; conditions: in vivo
[13] = Toxicity in KM mouse assessed as edema in cardiac muscle fibers at 20 mg/kg, sc measured after 24 hrs by H and E staining based analysis; assay type: organism-based; conditions: in vivo
Staphylococcus aureus [14] = experiment: Antibacterial activity against methicillin-resistant Staphylococcus aureus clinical isolate M12 infected in KM mouse assessed as decrease in bacterial load in skin tissues at 10 mg/kg, sc measured after 24 hrs by drop-plate counting method (reference value: 6.7); assay type: functional; set-up: scale not given: the % may be the effect or the level left
[15] = Toxicity in KM mouse assessed as pathological change in kidney at 20 mg/kg, sc measured after 24 hrs by H and E staining based analysis; assay type: organism-based; conditions: in vivo
Staphylococcus aureus [16] = experiment: Antibacterial activity against methicillin-resistant Staphylococcus aureus clinical isolate M11 by CLSI based micro-broth dilution method; assay type: functional
[17] = Toxicity in BALB/c mouse assessed as feeding abnormality at <15 mg/kg, ip bid for 7 days; assay type: organism-based; conditions: in vivo, 168 h, time 7 day
Staphylococcus aureus [18] = experiment: Disruption of cell membrane in methicillin-resistant Staphylococcus aureus clinical isolate M12 assessed as increase in protein leakage incubated for 4 hrs by BCA assay; assay type: functional, organism-based; conditions: dose <= 16.0 µg/ml
[19] = Toxicity in BALB/c mouse assessed as necrosis in renal tubular epithelial cells at 15 mg/kg, ip bid for 7 days; assay type: organism-based; conditions: in vivo, 168 h, time 7 day
Staphylococcus aureus [20] = experiment: Antibacterial activity against methicillin-resistant Staphylococcus aureus clinical isolate M12 infected in sepsis BALB/c mouse model assessed as decrease in degeneration of hepatocytes at 6 mg/kg, ip administered consecutively at 12 hr-interval for 24 hrs measured after 24 hrs post-last dose by H and E staining based analysis; assay type: functional, organism-based; conditions: time 48.0 hrs
[21] = Toxicity in BALB/c mouse assessed as change in blood biochemistry index at 15 mg/kg, ip bid for 7 days; assay type: organism-based; conditions: in vivo, 168 h, time 7 day
Staphylococcus aureus [22] = experiment: Antibacterial activity against methicillin-resistant Staphylococcus aureus clinical isolate M12 infected in sepsis BALB/c mouse model assessed as decrease in deformation of hepatocytes at 6 mg/kg, ip administered consecutively at 12 hr-interval for 24 hrs measured after 24 hrs post-last dose by H and E staining based analysis; assay type: functional, organism-based; conditions: time 48.0 hrs
[23] = Toxicity in BALB/c mouse assessed as inflammatory cell infiltration in renal tubular epithelial cells at 15 mg/kg, ip bid for 7 days; assay type: organism-based; conditions: in vivo, 168 h, time 7 day
[24] = Toxicity in KM mouse assessed as inflammatory cell infiltration in hepatocytes at 20 mg/kg, sc measured after 24 hrs by H and E staining based analysis; assay type: organism-based; conditions: in vivo
Staphylococcus aureus [25] = experiment: Induction of morphological changes in methicillin-resistant Staphylococcus aureus clinical isolate M12 assessed as rupture of bacterial bodies at 8 times MIC incubated for 4 hrs by SEM analysis; assay type: functional, organism-based
[26] = Toxicity in KM mouse assessed as change in platelet count at 20 mg/kg, sc measured after 24 hrs; assay type: organism-based; conditions: in vivo
[27] = Toxicity in BALB/c mouse assessed as edema in renal tubular epithelial cells at 15 mg/kg, ip bid for 7 days; assay type: organism-based; conditions: in vivo, 168 h, time 7 day
Staphylococcus aureus [28] = experiment: Antibacterial activity against methicillin-resistant Staphylococcus aureus clinical isolate M12 infected in KM mouse assessed as decrease in bacterial load in skin tissues at 5 mg/kg, sc measured after 24 hrs by drop-plate counting method (reference value: 6.7); assay type: functional
Staphylococcus aureus [29] = experiment: Disruption of cell membrane in methicillin-resistant Staphylococcus aureus clinical isolate M12 assessed as increase in DNA leakage incubated for 4 hrs by […]; assay type: functional, organism-based; conditions: dose <= 16.0 µg/ml
[30] = Cytotoxicity against human L02 cells assessed as cell viability at 64 ug/ml by CCK8 assay relative to control; assay type: toxicity, cell-based; conditions: at 64 µg/mL, read-out: Activity
[31] = Toxicity in KM mouse assessed as change in HGB level at 20 mg/kg, sc measured after 24 hrs; assay type: organism-based; conditions: in vivo
Staphylococcus aureus [32] = experiment: Antibacterial activity against methicillin-resistant Staphylococcus aureus clinical isolate M12 infected in KM mouse assessed as decrease in erythematous pustules at infected skin on back of animal at 5 mg/kg, sc measured after 24 hrs; assay type: functional, organism-based
[33] = Toxicity in sepsis BALB/c mouse model infected with methicillin-resistant Staphylococcus aureus clinical isolate M12 assessed as survival rate at 6 mg/kg, ip administered consecutively at 12 hr-interval for 7 days measured after 24 hrs post-last dose; assay type: organism-based; conditions: in vivo, 192 h, time 8 day
[34] = Toxicity in KM mouse assessed as necrosis in hepatocytes at 20 mg/kg, sc measured after 24 hrs by H and E staining based analysis; assay type: organism-based; conditions: in vivo
Staphylococcus aureus [35] = experiment: Antibacterial activity against methicillin-resistant Staphylococcus aureus clinical isolate M12 infected in sepsis BALB/c mouse model assessed as decrease in degeneration of hepatocytes at 12 mg/kg, ip administered consecutively at 12 hr-interval for 24 hrs measured after 24 hrs post-last dose by H and E staining based analysis; assay type: functional, organism-based; conditions: time 48.0 hrs

## C=CCc1cc(-c2ccc(OCCC[N+](C)(C)CC(=O)NCCCC)c(CC=C)c2)c2oc(=S)n(Cc3ccc(F)cc3)c2c1.[Br-]
Staphylococcus aureus [1]
  Activity: Active
[2]
  Survival: 33.3%
Staphylococcus aureus [3]
  Activity: 1.62 log10CFU/g
Staphylococcus aureus [4]
  Activity: Active
Staphylococcus aureus [5]
  Activity: Active
Staphylococcus aureus [6]
  Activity: Active
[7]
  Activity: Non-Toxic
[8]
  Activity: Non-Toxic
[9]
  Activity: Non-Toxic
[10]
  Activity: Non-Toxic
[11]
  Activity: Non-Toxic
[12]
  Activity: Non-Toxic
[13]
  Activity: Non-Toxic
Staphylococcus aureus [14]
  Activity: 4.1%
[15]
  Activity: Non-Toxic
Staphylococcus aureus [16]
  MIC: 4 µg/mL
[17]
  Activity: Non-Toxic
Staphylococcus aureus [18]
  Activity: Dose-Dependent Effect
[19]
  Activity: Non-Toxic
Staphylococcus aureus [20]
  Activity: inactive
[21]
  Activity: Non-Toxic
Staphylococcus aureus [22]
  Activity: inactive
[23]
  Activity: Non-Toxic
[24]
  Activity: Non-Toxic
Staphylococcus aureus [25]
  Activity: Active
[26]
  Activity: Non-Toxic
[27]
  Activity: Non-Toxic
Staphylococcus aureus [28]
  Activity: 1.4 log10CFU/g
Staphylococcus aureus [29]
  Activity: Dose-Dependent Effect
[30]
  viability at 64 ug/ml: ~70%
[31]
  Activity: Non-Toxic
Staphylococcus aureus [32]
  Activity: inactive
[33]
  Survival: 16.7%
[34]
  Activity: Non-Toxic
Staphylococcus aureus [35]
  Activity: Active

From ChEMBL document CHEMBL6127052, “Discovery of membrane-targeting amphiphilic honokiol derivatives containing an oxazolethione moiety to combat methicillin-resistant Staphylococcus aureus (MRSA) infections” (Eur J Med Chem, 2024)
